# Data reported in US20100081679A1, “DIAMINOPYRIMIDINES AS FUNGICIDES” (Bayer CropScience AG, priority 2007, published 2010).
# Marks after values point to notes of the source that are not given here.
# Assay: logP determination via retention times, calibrated with unbranched alkan-2-ones
# Format: physicochemical
# Details: HPLC on reversed-phase C 18, EEC Directive 79/831 Annex V.A8; method *: 40° C., 0.1% aqueous formic acid and acetonitrile, linear gradient 10% to 95% acetonitrile
row,SMILES,logP
1,FC(F)C(F)(F)Oc1cccc(Nc2ncc(Cl)c(NCC3CC3)n2)c1 [compound 527],2.95*
2,O=C1COCCN1c1ccc(Nc2ncc(Br)c(NC3CC3)n2)cc1 [compound 500],1.29*
3,CC(=O)Nc1ccc(Nc2ncc(Cl)c(NCC3CC3)n2)cn1 [compound 507],0.89*
4,CNC(=O)c1cccc(Nc2ncc(Cl)c(NCC3CC3)n2)c1 [compound 511],1.44*

# Same assay, conditions: HPLC on reversed-phase C 18, method **: 43° C.; 0.1% aqueous phosphoric acid and acetonitrile; linear gradient 10% to 95% acetonitrile
row,SMILES,logP
1,CC(=O)Nc1ccc(Nc2ncc(C(F)(F)F)c(NC3CC3)n2)cc1 [compound 956],1.64**

# Same assay, conditions: HPLC on reversed-phase C18, method **: 43° C.; mobile phase 0.1% aqueous phosphoric acid and acetonitrile; linear gradient 10% to 95% acetonitrile
row,SMILES,logP
1,O=S(=O)(Cc1ccc(Nc2ncc(Cl)c(NC3CC3)n2)cc1)NC1CC1 [compound 334],1.58**

# Same assay, conditions: HPLC on reversed-phase C18, method *: 40° C., 0.1% aqueous formic acid and acetonitrile, linear gradient 10% to 95% acetonitrile
row,SMILES,logP
1,Clc1cnc(Nc2ccccc2Br)nc1NC1CC1 [compound 871],2.7*
2,COC(=O)c1ccc(Nc2ncc(C(F)(F)F)c(NC3CC3)n2)cc1 [compound 971],3.21*
3,O=c1ccccn1-c1cccc(Nc2ncc(Cl)c(NC3CC3)n2)c1 [compound 726],1.39*
4,CCOC(=O)Cc1ccc(Nc2ncc(Br)c(NC3CC3)n2)cc1 [compound 758],2.06*
5,COC(=O)Nc1ccc(Nc2ncc(Cl)c(NCC3CC3)n2)cc1 [compound 153],1.44*
6,CCOc1cccc(Nc2ncc(Cl)c(NCC3CC3)n2)c1 [compound 692],2.21*
7,Cc1cc(F)ccc1Nc1ncc(Cl)c(NC2CC2)n1 [compound 945],1.68*
8,Clc1cc(Cl)cc(Nc2ncc(Br)c(NC3CC3)n2)c1 [compound 749],4.43*
9,N#Cc1cccc(Nc2ncc(Cl)c(NCC3CC3)n2)c1 [compound 685],2.26*
10,CN(C)Cc1cccc(Nc2ncc(Cl)c(NC3CC3)n2)c1 [compound 718],0.79*
11,O=C1OCCN1c1ccc(Nc2ncc(Cl)c(NCC3CC3)n2)cc1 [compound 160],1.39*
12,CC(C)(C)NC(=O)Cc1cccc(Nc2ncc(Br)c(NC3CC3)n2)c1 [compound 698],1.94*
13,Brc1ccc(Nc2ncc(Br)c(NC3CC3)n2)cc1 [compound 743],2.7*

# Same assay, conditions: HPLC on reversed-phase C18, method *: 40° C.; mobile phase 0.1% aqueous formic acid and acetonitrile; linear gradient 10% to 95% acetonitrile
row,SMILES,logP
1,CCOc1ccc(Nc2ncc(Br)c(NC3CC3)n2)cc1 [compound 308],1.87*
2,O=C1CCCN1c1cc(Nc2ncc(Cl)c(NC3CC3)n2)c(Cl)cc1Cl [compound 298],2.59*

# Same assay, conditions: HPLC on reversed-phase C18 column (EEC Directive 79/831 Annex V.A8); method *: 40° C.; 0.1% aqueous formic acid and acetonitrile; linear gradient 10% to 95% acetonitrile
row,SMILES,logP
1,COc1cc(Nc2ncc(C(F)(F)F)c(NCC3CC3)n2)cc(OC)c1OC [compound 217],2.57*
2,N#CCC(=O)c1ccc(Nc2ncc(Cl)c(NC3CC3)n2)cc1 [compound 248],2.09*

# Same assay, conditions: HPLC reversed-phase C 18, EEC Directive 79/831 Annex V.A8; method *: 40° C., 0.1% aqueous formic acid and acetonitrile, linear gradient 10% to 95% acetonitrile
row,SMILES,logP
1,CN(C)C(=O)c1ccc(Nc2ncc(C(F)(F)F)c(NC3CC3)n2)cc1 [compound 824],2.08*
2,CC(=O)Cc1cccc(Nc2ncc(Br)c(NC3CC3)n2)c1 [compound 782],1.64*
3,COC(c1cccc(Nc2ncc(Cl)c(NCC3CC3)n2)c1)C(F)(F)F (stereo not shown) [compound 792],2.74*
4,O=C1COCCN1c1cccc(Nc2ncc(Cl)c(NCC3CC3)n2)c1 [compound 786],1.31*
5,COC(C)c1cccc(Nc2ncc(Br)c(NC3CC3)n2)c1 (stereo not shown) [compound 805],2.08*

# Same assay, conditions: method **: HPLC reversed-phase C 18, 43° C., 0.1% aqueous phosphoric acid and acetonitrile, linear gradient 10% to 95% acetonitrile
row,SMILES,logP
1,CC(=O)NS(=O)(=O)c1ccc(Nc2ncc(Cl)c(NC3CC3)n2)cc1 [Example 24],1.64**
2,CN(C)S(=O)(=O)c1ccc(Nc2ncc(Cl)c(NC3CC3)n2)cc1 [Example 6],2.26**
3,O=[N+]([O-])c1ccc(Nc2ncc(Cl)c(NC3CC3)n2)cc1 [compound 438],2.9**

# Same assay, conditions: method **: HPLC reversed-phase C 18, temperature 43° C.; mobile phase 0.1% aqueous phosphoric acid and acetonitrile; linear gradient 10% to 95% acetonitrile
row,SMILES,logP
1,CC(=O)c1ccc(Nc2ncc(C(F)(F)F)c(NC3CC3)n2)cc1 [compound 656],2.8**

# Same assay, conditions: method **: HPLC, reversed-phase C 18, 43° C., mobile phase 0.1% aqueous phosphoric acid and acetonitrile, linear gradient from 10% to 95% acetonitrile
row,SMILES,logP
1,COCc1cccc(Nc2ncc(Cl)c(N(Cc3ccc(OC)cc3)C3CC3)n2)c1 [compound 1044],4.07**

# Same assay, conditions: method *: HPLC reversed-phase C18, 40° C., 0.1% aqueous formic acid and acetonitrile, linear gradient 10% to 95% acetonitrile
row,SMILES,logP
1,CC(C)C(=O)Nc1cccc(Nc2ncc(Cl)c(NC3CC3)n2)c1 [Example 86],1.63*
2,CCOC(=O)Nc1cccc(Nc2ncc(Br)c(NC3CC3)n2)c1 [compound 385],1.83*
3,CC1(C(=O)Nc2ccc(Nc3ncc(Cl)c(NC4CC4)n3)cc2)CC1 [Example 64],1.66*
4,O=C1CCCN1Cc1cccc(Nc2ncc(Cl)c(NC3CC3)n2)c1 [compound 433],1.45*
5,COc1ccc(Nc2ncc(Br)c(NCC3CC3)n2)cc1OC [compound 409],1.68*
6,CC(C)C(=O)Nc1cccc(Nc2ncc(Br)c(NCC3CC3)n2)c1 [compound 460],1.85*

# Same assay, conditions: method *: HPLC reversed-phase C 18, temperature 40° C.; mobile phase 0.1% aqueous formic acid and acetonitrile; linear gradient 10% to 95% acetonitrile
row,SMILES,logP
1,O=C1CCCN1c1cccc(Nc2ncc(F)c(NC3CC3)n2)c1 [compound 599],1.37*
2,CC(=O)c1ccc(Nc2ncc(C(F)(F)F)c(NC3CC3)n2)cc1 [compound 656],2.7*;
3,O=C1CCCN1c1ccc(Nc2ncc(F)c(NC3CC3)n2)cc1 [compound 593],1.35*
4,FC(F)(F)Oc1cccc(Nc2ncc(C(F)(F)F)c(NC3CC3)n2)c1 [compound 643],4.08*

# Same assay, conditions: method *: HPLC, reversed-phase C 18, 40° C., mobile phase 0.1% aqueous formic acid and acetonitrile, linear gradient from 10% to 95% acetonitrile
row,SMILES,logP
1,CC1CCCN1C(=O)c1cccc(Nc2ncc(Cl)c(NC3CC3)n2)c1 (stereo not shown) [compound 1062],1.86*
2,CCCSc1cccc(Nc2ncc(Cl)c(N(C)C3CC3)n2)c1 [compound 983],4.88*
3,CN1CCN(C(=O)c2cccc(Nc3ncc(Cl)c(NC4CC4)n3)c2)CC1 [compound 1059],0.59*
